Results taken from patent US12612412B2, “Antiviral heterocyclic compounds” (Enanta Pharmaceuticals, Inc., priority 2021, dated 2026).

Assays:
[1] = tested on: genotype A, "Long" strain RSV; assay: RSV-A assay (CPE protection in Hep-2 cells, ATPlite readout); assay type: cell-based, Human respiratory syncytial virus (HRSV); settings: human respiratory syncytial virus, genotype A “Long” strain RSV, MOI 0.1, CPE protection, read-out: Human RSV-A (“Long”)
How it was run: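 Protection from RSV-induced cytopathic effect measured by ATP content (ATPlite) after 5-day culture. Infection used genotype A Long virus at MOI 0.1 on 8,000 Hep-2 cells per well, with compound serially diluted 2-fold; values are EC50.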

[2] = tested on: HMPV clinical isolate TN/1501/A1; assay: HMPV antiviral assay Method-B (clinical isolate TN/1501/A1 in LLC-MK2 cells, ATP-Lite readout); assay type: cell-based, Human metapneumovirus (HMPV); settings: human metapneumovirus, LLC-MK2, 144 h, hMPV WT1501 (clinical isolate TN/1501/A1), 6 days
How it was run: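 EC50 derived by four-parameter logistic fit of percent cell health, measured by ATP-Lite luminescence and normalised to virus-only and uninfected-cell controls. Compounds run in duplicate from 10 μM top, 3-fold, 10 points. Infection: LLC-MK2 cells, MOI 0.014, 2 μg/mL final TPCK-trypsin, serum-free, 6 days at 37° C.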

Compound	EC50 [1] [nM]	EC50 [2] [nM]
COc1cc(C(=O)NC[C@](O)(c2cc3c(c(-c4ccc(F)cc4)n2)OC[C@]3(C)C(N)=O)C2CCC2)cc2cn(C3CC3)nc12 [Example 708]	< 200	< 500
C[C@]1(C(N)=O)COc2c1cc([C@@](O)(CNC(=O)c1cc(F)c3nc(N)sc3c1)C1(F)CC1)nc2-c1ccc(F)cc1 [Example 709]	< 200	> 500
Cc1cnc2c(OC(F)F)cc(C(=O)NC[C@](O)(c3cc4c(c(-c5ccc(F)cc5)n3)OC[C@]4(C)C(N)=O)C3(F)CC3)cc2c1 [Example 710]	< 200	< 500
COc1cc(C(=O)NC[C@](O)(c2cc3c(c(-c4ccc(F)cc4)n2)OC[C@]3(C)C(N)=O)C2(F)CC2)cc2cn(C(F)F)nc12 [Example 711]	< 200	< 500
COc1cc(C(=O)NC[C@](O)(c2cc3c(c(-c4ccc5c(c4)OC(F)(F)O5)n2)OC[C@]3(C)C(N)=O)C2(F)CC2)cc2cn(C3CC3)nc12 [Example 712]	< 200	< 500
Cc1cnc2c(OC(F)F)cc(C(=O)NC[C@](O)(c3cc4c(c(-c5ccc6c(c5)OC(F)(F)O6)n3)OC[C@]4(C)C(N)=O)C3(F)CC3)cc2c1 [Example 713]	< 200	< 500
COc1cc(C(=O)NC[C@](O)(c2cc3c(c(-c4ccc(F)c(Cl)c4)n2)OC[C@]3(C)C(N)=O)C2(F)CC2)cc2cn(C3CC3)nc12 [Example 714]	< 200	< 500
Cc1cnc2c(OC(F)F)cc(C(=O)NC[C@](O)(c3cc4c(c(-c5ccc(F)c(Cl)c5)n3)OC[C@]4(C)C(N)=O)C3(F)CC3)cc2c1 [Example 715]	< 200	< 500
COc1cc(C(=O)NC[C@](O)(c2cc3c(c(-c4ccc5c(c4)OC(F)(F)O5)n2)OC[C@]3(C)C(N)=O)C2(F)CC2)cc2cc(C3CC3)nn12 [Example 716]	< 200	< 500
COc1cc(C(=O)NC[C@](O)(c2cc3c(c(-c4ccc5c(c4)OC(F)(F)O5)n2)OC[C@]3(C)C(N)=O)C2(F)CC2)cc2cc(Cl)c(C)nc12 [Example 717]	< 200	< 500

Continued, values first:

EC50 [1] [nM]	EC50 [2] [nM]	Compound
< 200	> 500	COc1cc(C(=O)NC[C@](O)(c2cc3c(c(-c4ccc(F)c(Cl)c4)n2)OC[C@]3(C)C(N)=O)C2(F)CC2)cc2cc(C3CC3)nn12 [Example 718]
< 200	< 500	COc1cc(C(=O)NC[C@](O)(c2cc3c(c(-c4ccc(F)c(Cl)c4)n2)OC[C@]3(C)C(N)=O)C2(F)CC2)cc2cc(Cl)c(C)nc12 [Example 719]
< 200	< 500	COc1cc(C(=O)NC[C@](O)(c2cc3c(c(-c4ccc5c(c4)OC(F)(F)O5)n2)OC[C@]3(C)C(N)=O)C2(F)CC2)cc2cn(C(F)F)nc12 [Example 720]
< 200	> 500	COc1cc(C(=O)NC[C@](O)(c2cc3c(c(-c4ccc(F)c(Cl)c4)n2)OC[C@]3(C)C(N)=O)C2(F)CC2)cc2cn(C(F)F)nc12 [Example 721]
< 200	< 500	COc1cc(C(=O)NC[C@](O)(c2cc3c(c(-c4ccc(F)c(Cl)c4)n2)OC[C@]3(C)C(N)=O)C2CC2)cc2sc(C)nc12 [Example 722]
< 200	< 500	COc1cc(C(=O)NC[C@](O)(c2cc3c(c(-c4ccc(F)c(Cl)c4)n2)OC[C@]3(C)C(N)=O)C2(F)CC2)cc2sc(C)nc12 [Example 723]
< 200	< 500	COc1cc(C(=O)NC[C@](O)(c2cc3c(c(-c4ccc(F)cc4)n2)OC[C@]3(C)C(N)=O)C2(F)CC2)cc2sc(C)nc12 [Example 724]
< 200	< 500	COc1cc(C(=O)NC[C@](O)(c2cc3c(c(-c4ccc5c(c4)OC(F)(F)O5)n2)OC[C@]3(C)C(N)=O)C2(F)CC2)cc2cn(C3(F)CC3)nc12 [Example 725]
< 200	< 500	COc1cc(C(=O)NC[C@](O)(c2cc3c(c(-c4ccc(F)cc4)n2)OC[C@]3(C)C(N)=O)C2CCC2)cc2cn(C3(F)CC3)nc12 [Example 726]
